Patent US11464773B2, “Nutlin-3a for treatment of proliferative vitreoretinopathy” (The Schepens Eye Research Institute, Inc., priority 2012, dated 2022)
Entries after “also recorded” stand apart in the source; their conditions may differ.

What was measured:
p53 [1] = assay: p53 immunohistochemistry of epiretinal membranes from PVR rabbits; format: in vivo, rabbit; details: day 28, immunohistochemistry
Description: (§1) FIGS. 2A-2B include a dot plot and a series of photomicrographs showing that Nutlin -3a prevented retinal detachment and elevated p53 in epiretinal membranes. FIG. 2A is a dot plot illustrating the impact of Nutlin-3a on experimental PVR. RCFs were used to induce PVR as described below. The indicated rabbits received no additional injections (none) or 0.1 cc injections of either vehicle, or Nutlin-3a (20 μM) on day 0, 2 and 4. The data were subjected to an unpaired t test or one way Analysis of Variance (ANOVA) test; “*” denoted a statistically significant difference. FIG. 2B is a series of photographs showing that Nutlin-3a enhanced expression of p53 in epiretinal membranes. At the end of the experiment (day 28), the eyes were enucleated, and paraffin sections of whole eyes were subjected to p53 immunohistochemistry. The arrows point to the epiretinal membrane (the arrowheads denote the retina and the brown color indicates p53). The left and right panels are from a Nutlin-3a injected animal, whereas the middle panel is from a rabbit treated with vehicle. The left and middle panels were stained with the p53 antibody, whereas the right panel was stained with non-immune IgG. The scale bar is 50 μm.
Rabbit eyeballs were fixed in 10% formalin for 48 hr and embedded in paraffin after dehydration. […]

[2] = test system: primary rabbit conjunctival fibroblasts (RCFs); assay: Maximum tolerated dose in cultured RCFs; format: cell-based; details: RCFs in DMEM+5% FBS, medium replaced every 24 hours, day 3
Description: FIGS. 8A-8B include a series of photographs showing the minimum effective dose and maximum tolerated dose of Nutlin-3a. FIG. 8A is a series of photomicrographs of western blots showing RCFs pretreated with the indicated concentrations of Nutlin-3a for 30 min, and then exposed to RV (diluted 1:3 in DMEM) for 2 hours. Cells were lysed and resulting lysates were subjected to western blot analysis using the indicated antibodies. The data shown are representative of three independent experiments. FIG. 8B is a series of photographs showing RCFs grown to near confluence in DMEM+10% FBS, the medium was replaced with DMEM+5% FBS+the indicated concentration of Nutlin-3a. The medium was replaced every 24 hours, and the photographs were taken on day 3. The data shown are representative of two independent experiments. The scale bar is 50 μm.

[3] = test system: RPE cells isolated from a human PVR membrane; assay: Collagen contraction assay, HV-stimulated, RPE cells from a human PVR membrane; format: cell-based; details: RPE cells from human epiretinal membrane, HV diluted 1:3
From the text: (§2) FIGS. 7A-7B include a photograph of a western blot and a bar chart showing p53 attenuated human vitreous humor (HV)-driven collagen gel contraction. FIG. 7A is a photograph of a western blot showing the impact of Nutlin-3a on HV-mediated signaling events. Methods were the same as FIG. 3A, but the RPE cells from a human patient epiretinal membrane were used in place of RCF, and HV (a pool of vitreous from 5 PVR patients diluted 1:3 in DMEM) was used in place of RV. The data presented are representative of three independent experiments. FIG. 7B is a bar chart showing the impact of Nutlin-3a on HV-mediated contraction. This experiments were the same as FIG. 3B with the modification noted in FIG. 7A. The data were subjected to a paired t test. “*” denoted a statistically significant difference. The data shown are representative of three independent experiments.
RPEM cells are RPE cells derived from a human epiretinal membrane, as previously described (Wong C A et al., 2002 Can J Ophthalmol, 37:211-220). […]
(§3) Cells were trypsinized, washed and resuspended in 1.5 mg/ml of neutralized collagen I (INAMED, Fremont, Calif.) (pH 7.2) at a density of 1×10^6 cells/ml for RPEM or 5×10^4 cells/ml for RCFs. […] The media were replaced every day, and the gel diameter was measured on day 3. The gel area was calculated using the formula πr2, where r is the radius of the gel.

retina = assay: Retinal toxicity after intravitreal injections in rabbits; format: in vivo; details: multiple intravitreal injection of up to 20 micromolar, day 0, 2 and 4; fundus exams to day 14, histology
Description: FIGS. 9A-9B include a series of photographs showing epiretinal membranes from rabbits subjected to the PVR protocol. Rabbits that underwent a gas vitrectomy were intravitreally injected with the indicated concentration of Nutlin-3a on day 0, 2 and 4. The rabbits underwent a fundus examination on day 1, 3, 5, 7 and 14. Following the last fundus exam rabbits were euthanized, eyes were enucleated and fixed in 10% formalin. Sections were prepared, stained with hematoxylin and eosin, and then photographed. Representative photos of a Nutlin-3a (FIG. 9A) and vehicle (FIG. 9B) injected eye are presented. Arrowheads and arrows point to the retina and epiretinal membrane, respectively; scale bar: 50 μm. The lack of the retinal pigment epithelial cell layer is an artifact related to processing of the tissue.

p53 [4] = assay: Western blot: RV-mediated decline in the level of p53 in RCFs; format: cell-based, rabbit
Description: (§4) FIG. 1A is a photograph of a western blot showing the impact of Nutlin-3a on RV-mediated signaling events. Primary rabbit conjunctival fibroblasts (RCFs) were pre-treated with either Nutlin-3a (10 μM), or vehicle for 30 min and then exposed to either RV (diluted 1:3 in Dulbecco's Modified Eagle Medium (DMEM)), or DMEM for 2 hr. The resulting cell lysates were subjected to western blot analysis using the indicated antibodies. The numbers are a ratio of p-PDGFRα/PDGFRα, p-Akt/Akt or p53/RasGAP (Ras GTPase) activating protein. […] FIG. 1B is a bar chart showing the impact of Nutlin-3a on RV-mediated contraction. RCFs were subjected to the collagen contraction assay as described above. Nutlin-3a (10 μM) or vehicle was included as indicated. The data were subjected to a paired t test; “*” denoted a statistically significant difference.
FIGS. 8A-8B include a series of photographs showing the minimum effective dose and maximum tolerated dose of Nutlin-3a. FIG. 8A is a series of photomicrographs of western blots showing RCFs pretreated with the indicated concentrations of Nutlin-3a for 30 min, and then exposed to RV (diluted 1:3 in DMEM) for 2 hours. […]
(§5) Cells were grown to 90% confluence in serum-containing medium, and then incubated for 24 hr in medium without serum. […] Signal intensity was determined by densitometry and analyzed with the Quantity One (Bio-Rad) software.

PDGFRα = assay: Western blot: RV-induced phosphorylation of PDGFRα in RCFs; format: cell-based, rabbit; details: Nutlin-3a 10 μM, RV 2 hr
Description: as §4
(§6) Cells were grown to 90% confluence in serum-containing medium, and then incubated for 24 hr in medium without serum. Cells were stimulated (as detailed for each experiment), washed twice with ice-cold phosphate buffered saline (PBS), and lysed in extraction buffer (10 mM Tris-HCl, pH 7.4, 5 mM EDTA, 50 mM NaCl, 50 mM NaF, 1% Triton X-100, 20 μg/ml aprotinin, 2 mM Na3VO4, 1 mM phenylmethylsulfonyl fluoride). […] Signal intensity was determined by densitometry and analyzed with the Quantity One (Bio-Rad) software.

[5] = test system: primary rabbit conjunctival fibroblasts (RCFs); assay: Collagen I contraction assay, RV-induced, RCFs; format: cell-based; details: Nutlin-3a 10 μM, gel measured on day 3
Description: as §4
as §3, with “RCFs. The mixture was aliquoted into wells of a 24-well plate that had been preincubated overnight with 5 mg/ml bovine serum albumin in PBS.” for “RCFs.”

p53 [6] = assay: Western blot: HV-mediated fall in the level of p53 in RPE cells from a human PVR membrane; format: cell-based; details: RPE cells from human epiretinal membrane, HV pool of 5 PVR patients diluted 1:3
From the text: as §2
(§7) RPEM cells are RPE cells derived from a human epiretinal membrane, as previously described (Wong C A et al., 2002 Can J Ophthalmol, 37:211-220). Primary rabbit conjunctival fibroblasts (RCFs) were obtained and cultured as described previously (Ikuno Y et al., 2002 Invest Ophthalmol Vis Sci, 43:2406-2411). […]
as §5

[7] = test system: upstream signaling events; assay: Western blot: HV-mediated upstream signaling events in RPE cells from a human PVR membrane; format: cell-based; details: RPE cells from human epiretinal membrane, HV diluted 1:3
From the text: as §2, §7, §5

[8] = test system: proliferative vitreoretinopathy (PVR); assay: Rabbit model for PVR (Fastenberg scale); format: in vivo, Dutch Belted rabbits
Description: as §1
PVR was induced in Dutch Belted rabbits, purchased from Covance (Denver, Pa.), as previously described (Lei H et al., 2009 Invest Ophthalmol Vis Sci, 50:3394-3403). Briefly, a gas vitrectomy was performed by injecting 0.1 ml of perfluoropropane (C3F8) (Alcon, Fort Worth, Tex.) into vitreous. One week later, the right eye of rabbits was injected in one of two ways. For the experiment injecting RCFs expressing shRNAs, 0.1 ml of DMEM containing 1×10^5 RCFs that were modified as outlined in the legend were injected along with 0.1 ml rabbit platelet-rich plasma. For the Nutlin-3a experiment, all rabbits were injected with 0.1 ml of DMEM containing 1×10^5 unmodified RCFs, 0.1 ml rabbit platelet rich plasma and either not injected a third time, or injected with vehicle, or 0.1 ml of 200 μM Nutlin-3a. The vehicle or Nutlin-3a injection was repeated on day 3 and 5. The retinal status was evaluated with an indirect ophthalmoscope fitted with a +30 D fundus lens on day 1, 3, 5, 7, 14, 21 and 28. PVR was graded according to the Fastenberg scale of classification 41: stage 0, no disease; stage 1, epiretinal membrane; stage 2, vitreoretinal traction without retinal detachment; stage 3, localized retinal detachment (1-2 quadrants); stage 4, extensive retinal detachment (2-4 quadrants without complete detachment); stage 5, complete retinal detachment. On day 28, animals were sacrificed, and eyes were enucleated and frozen at −80° C.

Akt = assay: Western blot: RV-induced activation of Akt in RCFs; format: cell-based, rabbit; details: Nutlin-3a 10 μM, RV 2 hr
Description: as §4, §6

Fα cells = assay: Collagen contraction assay, RV-induced, Fα cells; format: cell-based, mouse; details: Imatinib 10 μM, day 3
From the text: (§8) FIGS. 10A-10B include a series of bar graphs showing that inhibiting PDGFRα kinase activity blocked RV-induced collagen contraction. The indicated RCFs (50,000 cells/ml) (FIG. 10A) or F cells (1 million cells/ml) (FIG. 10B) were subjected to a collagen contraction assays as described below. […] The panels below the bar graphs show photographs of representative gels; the data presented are representative of 3 independent experiments. The data were subjected to a paired t test; “*” denoted a statistically significant difference.
(§9) RPEM cells are RPE cells derived from a human epiretinal membrane, as previously described (Wong C A et al., 2002 Can J Ophthalmol, 37:211-220). Primary rabbit conjunctival fibroblasts (RCFs) were obtained and cultured as described previously (Ikuno Y et al., 2002 Invest Ophthalmol Vis Sci, 43:2406-2411). RCFs that stably expressed the shRNA targeting vector specific for GFP, PDGFRα, p53 or PDGFRα and p53 were designated sh GFP, sh PDGFRα sh p53 and sh PDGFRα/p53, respectively.
as §3

Fβ cells = assay: Collagen contraction assay, RV-induced, Fβ cells; format: cell-based, mouse; details: Imatinib 10 μM, day 3
From the text: as §8, §9, §3

sh GFP cells = assay: Collagen contraction assay, RV-induced, sh GFP RCFs; format: cell-based, rabbit; details: Imatinib 10 μM, day 3
From the text: as §8
Cells were trypsinized, washed and resuspended in 1.5 mg/ml of neutralized collagen I (INAMED, Fremont, Calif.) (pH 7.2) at a density of 1×10^6 cells/ml for RPEM or 5×10^4 cells/ml for RCFs. The mixture was aliquoted into wells of a 24-well plate that had been preincubated overnight with 5 mg/ml bovine serum albumin in PBS. The collagen solution was solidified by incubating at 37° C. for 90 min, and overlaid with medium containing the desired agents. The media were replaced every day, and the gel diameter was measured on day 3. The gel area was calculated using the formula πr2, where r is the radius of the gel.

Structure (SMILES)	p53 level in epiretinal membranes versus vehicle-injected controls (p53 [1])	maximum tolerated dose [2] [µM]	HV-stimulated contraction of RPE-containing collagen gels [3]	overt signs of retinal toxicity (retina)	RV-mediated decline in the level of p53 (p53 [4]; RCFs pre-treated with Nutlin-3a 10 μM 30 min, then RV (1:3 in DMEM) 2 hr)	minimum dose to prevent the RV-induced reduction of p53 (p53 [4]; RCFs pretreated 30 min, RV (1:3) 2 hours) [µM]	RV-induced phosphorylation of PDGFRα (PDGFRα)	RV-mediated contraction of collagen gels [5]	HV-induced fall in the level of p53 (p53 [6])	upstream signaling events in HV-treated cells [7]	animals that succumbed to even partial retinal detachment (stage 3 or 4) ([8]; by day 28, intravitreal Nutlin-3a injections) [%]	formation of epiretinal membranes (stage 1 and 2) ([8]; intravitreal Nutlin-3a injections, to day 28)	retinal detachment ([8]; series of intravitreal injections)	rabbits that developed vitreal traction (stage 2) ([8]; series of intravitreal injections, end of experiment (day 28)) [%]	RV-induced activation of Akt (Akt)	RV-stimulated contraction in cells expressing PDGFRα (Fα) (Fα cells)	RV-induced contraction in cells expressing PDGFRβ (Fβ) (Fβ cells)	RV-induced contraction in sh GFP cells (sh GFP cells)
COc1ccc(C2=N[C@@H](c3ccc(Cl)cc3)[C@@H](c3ccc(Cl)cc3)N2C(=O)N2CCNC(=O)C2)c(OC(C)C)c1 (single isomer, unassigned) [Nutlin-3a]	higher	30	inhibited	did not produce overt signs of retinal toxicity	effectively blocked	2	no effect	effectively blocked	prevented the precipitous fall	without impacting upstream signaling events	0	slowed formation of membranes; also recorded: did form membranes	completely prevented	50	no effect	–	–	–
Cc1ccc(NC(=O)c2ccc(CN3CCN(C)CC3)cc2)cc1Nc1nccc(-c2cccnc2)n1 [Imatinib]	–	–	–	–	–	–	–	–	–	–	–	–	–	–	–	erased	did not improve RV-induced contraction or generate sensitivity to Imatinib	completely blocked
